Starred links: 1 amine or outer side, 2 acyl side, 3 side chain; linkers in the order of their positions; H or OH if unused. Positions of bridges follow the written chain, without caps; N, C: chain ends. Non-standard residues stand in square brackets, D forms with d. Residues, ends and D or L forms follow the SMILES beside them. Groups on a side chain read outwards from the residue. *: point of attachment. Trp(1-Me) = Cn1cc(C[C@H](N)C(=O)O)c2ccccc21; Abu(4-yl) = O=C([C@H](CC[*:3])N[*:1])[*:2]; C18 diacid = O=C(O)CCCCCCCCCCCCCCCCC(=O)*; C16 diacid = O=C(O)CCCCCCCCCCCCCCC(=O)*; γGlu = O=C(O)[C@H](CCC(=O)[*:2])N[*:1]; AEEA = NCCOCCOCC(=O)O; Sar = CNCC(=O)O
Each compound was assayed on classical complement pathway (assay: In vitro haemolysis assay (inhibition of classical complement pathway)). Conditions: Table 3; human serum, sensitized sheep red blood cells; read-out: IC50[nM], in vitro analysis of inhibition of hemolysis.
Assay type: cell-based, human
In short: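 Serially diluted compound (9 points) was preincubated 15 min at room temperature with diluted human serum, titrated per batch to give 70-90% maximal haemolysis, in Tris/casein buffer pH 7.4 with Mg2+/Ca2+. Antibody-sensitized sheep erythrocytes were then added for 30 min at 37° C, and the reaction was stopped with EDTA. Haemolysis was read at A405, with IC50 from 4PL fit.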

SMILES	IC50 [nM]
CC[C@H](C)[C@@H]1NC(=O)[C@@H](NC(=O)CN(C)C(=O)[C@H](CCC(=O)O)NC(=O)[C@H](CO)NC(C)=O)CSSC[C@@H](C(=O)N[C@H](C(=O)N[C@@H](CCC(=O)O)C(=O)N[C@@H](C)C(N)=O)[C@@H](C)O)NC(=O)[C@H](CCCNC(=N)N)NC(=O)[C@H](Cc2c[nH]cn2)NC(=O)[C@H](CCC(=O)O)NC(=O)CN(C)C(=O)[C@H](Cc2c[nH]c3ccccc23)NC(=O)[C@H](CCC(=O)O)NC(=O)[C@H](CCC(N)=O)NC(=O)[C@H](Cc2cn(C)c3ccccc23)NC1=O [Compound 89, Ac-SE[Sar]C(1)I[1-Me-Trp]QEW[Sar]EHRC(1)TEA-NH2] (Ac-SE[Sar]CI[Trp(1-Me)]QEW[Sar]EHRCTEA-NH2; disulfide 4-14)	< 100
CC[C@H](C)[C@H](NC(=O)[C@H](C)NC(=O)[C@H](CO)NC(=O)[C@H](CO)NC(=O)[C@H](CCC(=O)O)NC(C)=O)C(=O)N[C@H]1CSSC[C@@H](C(=O)N[C@H](C(N)=O)[C@@H](C)O)NC(=O)[C@H](CCCNC(=N)N)NC(=O)[C@H](Cc2c[nH]cn2)NC(=O)[C@H](C)NC(=O)CNC(=O)[C@H](Cc2c[nH]c3ccccc23)NC(=O)[C@H](CC(=O)O)NC(=O)[C@H](CCC(N)=O)NC(=O)[C@H](Cc2c[nH]c3ccccc23)NC(=O)[C@H]([C@@H](C)CC)NC1=O [Compound 46] (Ac-ESSAICIWQDWGAHRCT-NH2; disulfide 6-16)	< 100
CC[C@H](C)[C@H](NC(C)=O)C(=O)N[C@H]1CSSC[C@@H](C(=O)N[C@H](C(N)=O)[C@@H](C)O)NC(=O)[C@H](CCCNC(=N)N)NC(=O)[C@H](Cc2c[nH]cn2)NC(=O)[C@H](CO)NC(=O)CNC(=O)[C@H](Cc2c[nH]c3ccccc23)NC(=O)[C@H](CC(=O)O)NC(=O)[C@H](CCC(N)=O)NC(=O)[C@H](Cc2c[nH]c3ccccc23)NC(=O)[C@H]([C@@H](C)CC)NC1=O [Compound 6] (Ac-ICIWQDWGSHRCT-NH2; disulfide 2-12)	< 250
CC[C@H](C)[C@@H]1NC(=O)[C@@H](NC(=O)[C@H](Cc2ccccc2)NC(=O)[C@H](CCC(=O)O)NC(=O)[C@H](CO)NC(C)=O)CSSC[C@@H](C(=O)N(C)CC(=O)N[C@@H](CCC(=O)O)C(=O)NCC(=O)N[C@@H](CCC(=O)O)C(=O)NCCOCCOCC(=O)NCCOCCOCC(=O)N[C@@H](CCCCNC(=O)CC[C@H](NC(=O)CNC(=O)CC[C@H](NC(=O)CCCCCCCCCCCCCCC(=O)O)C(=O)O)C(=O)O)C(N)=O)NC(=O)[C@H](CCCNC(=N)N)NC(=O)[C@H](Cc2c[nH]cn2)NC(=O)[C@H](CCC(=O)O)NC(=O)CNC(=O)[C@H](Cc2c[nH]c3ccccc23)NC(=O)[C@H](CC(=O)O)NC(=O)[C@H](CCC(N)=O)NC(=O)[C@H](Cc2cn(C)c3ccccc23)NC1=O [Compound 127] (Ac-SEFCI[Trp(1-Me)]QDWGEHRC[Sar]EGE[AEEA][AEEA]K([γGlu-Gly-γGlu-C16 diacid])-NH2; disulfide 4-14)	< 100
CC[C@H](C)[C@@H]1NC(=O)[C@@H](NC(=O)CN(C)C(=O)[C@H](CCC(=O)O)NC(=O)CNC(C)=O)CSSC[C@@H](C(=O)N[C@H](C(=O)N[C@@H](CCC(=O)O)C(=O)N[C@@H](C)C(N)=O)[C@@H](C)O)NC(=O)[C@H](CCCNC(=N)N)NC(=O)[C@H](Cc2c[nH]cn2)NC(=O)[C@H](CCC(=O)O)NC(=O)CNC(=O)[C@H](Cc2c[nH]c3ccccc23)NC(=O)[C@H](CC(=O)O)NC(=O)[C@H](CCC(N)=O)NC(=O)[C@H](Cc2cn(C)c3ccccc23)NC1=O [Compound 88] (Ac-GE[Sar]CI[Trp(1-Me)]QDWGEHRCTEA-NH2; disulfide 4-14)	< 100
CC[C@H](C)[C@@H]1NC(=O)[C@@H](NC(=O)[C@H](Cc2ccc(O)cc2)NC(C)=O)CSSC[C@@H](C(=O)N[C@H](C(=O)N[C@@H](CCC(=O)O)C(=O)N[C@@H](CO)C(=O)NCC(=O)N[C@@H](C)C(N)=O)[C@@H](C)O)NC(=O)[C@H](CCCNC(=N)N)NC(=O)[C@H](Cc2c[nH]cn2)NC(=O)[C@H](CCC(=O)O)NC(=O)CNC(=O)[C@H](Cc2c[nH]c3ccccc23)NC(=O)[C@H](CC(=O)O)NC(=O)[C@H](CCC(N)=O)NC(=O)[C@H](Cc2cn(C)c3ccccc23)NC1=O [Compound 69] (Ac-YCI[Trp(1-Me)]QDWGEHRCTESGA-NH2; disulfide 2-12)	< 100
CC[C@H](C)[C@@H]1NC(=O)[C@@H](NC(=O)[C@H](Cc2ccccc2)NC(=O)[C@H](CCC(=O)O)NC(=O)CNC(C)=O)CSCC[C@@H](C(=O)N(C)CC(=O)N[C@@H](CCC(=O)O)C(=O)N[C@@H](C)C(=O)N[C@@H](CCC(=O)O)C(=O)NCCOCCOCC(=O)NCCOCCOCC(=O)N[C@@H](CCCCNC(=O)CC[C@H](NC(=O)CNC(=O)CC[C@H](NC(=O)CCCCCCCCCCCCCCCCC(=O)O)C(=O)O)C(=O)O)C(N)=O)NC(=O)[C@H](CCCNC(=N)N)NC(=O)[C@H](Cc2c[nH]cn2)NC(=O)[C@H](CCC(=O)O)NC(=O)CN(C)C(=O)[C@H](Cc2c[nH]c3ccccc23)NC(=O)[C@H](CC(=O)O)NC(=O)[C@H](CCC(N)=O)NC(=O)[C@H](Cc2cn(C)c3ccccc23)NC1=O [Compound 149, Ac-GEFA(1)I[1-Me-Trp]QDW[Sar]EHRhC(1)[Sar]EAE[Peg3][Peg3]-K([17-carboxy-heptadecanoyl][γGlu]G[γGlu])-NH2] (Ac-GEFCI[Trp(1-Me)]QDW[Sar]EHR[Abu(4-yl)][Sar]EAE[AEEA][AEEA]K([γGlu-Gly-γGlu-C18 diacid])-NH2; thioether 4-14)	< 100
CC[C@H](C)[C@@H]1NC(=O)[C@@H](NC(=O)[C@H](Cc2ccccc2)NC(=O)[C@H](CCC(=O)O)NC(C)=O)CSSC[C@@H](C(=O)N[C@@H](CCC(=O)O)C(=O)N[C@@H](CO)C(N)=O)NC(=O)[C@H](CCCNC(=N)N)NC(=O)[C@H](Cc2c[nH]cn2)NC(=O)[C@H](CCC(=O)O)NC(=O)CNC(=O)[C@H](Cc2c[nH]c3ccccc23)NC(=O)[C@H](CC(=O)O)NC(=O)[C@H](CCC(N)=O)NC(=O)[C@H](Cc2cn(C)c3ccccc23)NC1=O [Compound 85] (Ac-EFCI[Trp(1-Me)]QDWGEHRCES-NH2; disulfide 3-13)	< 100
CC[C@H](C)[C@@H]1NC(=O)[C@@H](NC(=O)[C@H](Cc2ccc(O)cc2)NC(C)=O)CSSC[C@@H](C(=O)N[C@H](C(N)=O)[C@@H](C)O)NC(=O)[C@H](CCCNC(=N)N)NC(=O)[C@H](Cc2c[nH]cn2)NC(=O)[C@H](CCC(=O)O)NC(=O)CNC(=O)[C@H](Cc2c[nH]c3ccccc23)NC(=O)[C@H](CC(=O)O)NC(=O)[C@H](CCC(N)=O)NC(=O)[C@H](Cc2c[nH]c3ccccc23)NC1=O [Compound 9] (Ac-YCIWQDWGEHRCT-NH2; disulfide 2-12)	< 100
CC[C@H](C)[C@H](NC(C)=O)C(=O)N[C@H]1CSSC[C@@H](C(=O)N[C@H](C(=O)NCC(=O)N[C@@H](C)C(=O)N[C@@H](CCC(=O)O)C(=O)N[C@@H](CO)C(N)=O)[C@@H](C)O)NC(=O)[C@H](CCCNC(=N)N)NC(=O)[C@H](Cc2c[nH]cn2)NC(=O)[C@H](C)NC(=O)CNC(=O)[C@H](Cc2c[nH]c3ccccc23)NC(=O)[C@H](CCCCN)NC(=O)[C@H](CCC(N)=O)NC(=O)[C@H](Cc2c[nH]c3ccccc23)NC(=O)[C@H]([C@@H](C)CC)NC1=O [Compound 8] (Ac-ICIWQKWGAHRCTGAES-NH2; disulfide 2-12)	< 500
CC[C@H](C)[C@H](NC(C)=O)C(=O)N[C@H]1CSSC[C@@H](C(=O)N[C@H](C(=O)N[C@@H](CCC(=O)O)C(=O)NCC(=O)N[C@@H](CCCCN)C(N)=O)[C@@H](C)O)NC(=O)[C@H](CCCNC(=N)N)NC(=O)[C@H](Cc2c[nH]cn2)NC(=O)[C@H](CCC(=O)O)NC(=O)CNC(=O)[C@H](Cc2c[nH]c3ccccc23)NC(=O)[C@H](CC(=O)O)NC(=O)[C@H](CCC(N)=O)NC(=O)[C@H](Cc2c[nH]c3ccccc23)NC(=O)[C@H]([C@@H](C)CC)NC1=O [Compound 39] (Ac-ICIWQDWGEHRCTEGK-NH2; disulfide 2-12)	< 100
CC[C@H](C)[C@@H]1NC(=O)[C@@H](NC(=O)[C@H](Cc2ccccc2)NC(=O)[C@H](CCC(=O)O)NC(=O)[C@H](CO)NC(C)=O)CSCC[C@@H](C(=O)N[C@H](C(=O)N[C@@H](CCC(=O)O)C(=O)NCC(=O)N[C@@H](CCC(=O)O)C(=O)NCCOCCOCC(=O)N[C@@H](CCC(=O)O)C(=O)N[C@@H](CO)C(=O)N[C@@H](CCCCNC(=O)CC[C@H](NC(=O)CCCCCCCCCCCCCCCCC(=O)O)C(=O)O)C(=O)O)[C@@H](C)O)NC(=O)[C@H](CCCNC(=N)N)NC(=O)[C@H](Cc2c[nH]cn2)NC(=O)[C@H](CCC(=O)O)NC(=O)CNC(=O)[C@H](Cc2c[nH]c3ccccc23)NC(=O)[C@H](CC(=O)O)NC(=O)[C@H](CCC(N)=O)NC(=O)[C@H](Cc2cn(C)c3ccccc23)NC1=O [Compound 163, Ac-SEFA(1)I[1-Me-Trp]QDWGEHRhC(1)TEGE[Peg3]ES-K([17-carboxy-heptadecanoyl][γGlu])-OH] (Ac-SEFCI[Trp(1-Me)]QDWGEHR[Abu(4-yl)]TEGE[AEEA]ESK([γGlu-C18 diacid])-OH; thioether 4-14)	< 100

Same assay, conditions: Table 4; valine 3 versus isoleucine 3 pairs; read-out: CP hemolysis IC50

SMILES	IC50 [nM]
CC[C@H](C)[C@H](NC(C)=O)C(=O)N[C@H]1CSSC[C@@H](C(=O)N[C@H](C(N)=O)[C@@H](C)O)NC(=O)[C@H](CCCNC(=N)N)NC(=O)[C@H](Cc2c[nH]cn2)NC(=O)[C@H](CO)NC(=O)CNC(=O)[C@H](Cc2c[nH]c3ccccc23)NC(=O)[C@H](CC(=O)O)NC(=O)[C@H](CCC(N)=O)NC(=O)[C@H](Cc2c[nH]c3ccccc23)NC(=O)[C@H](C(C)C)NC1=O [B, reference compound] (Ac-ICVWQDWGSHRCT-NH2; disulfide 2-12)	360
CC[C@H](C)[C@H](NC(C)=O)C(=O)N[C@H]1CSSC[C@@H](C(=O)N[C@H](C(N)=O)[C@@H](C)O)NC(=O)[C@H](CCCNC(=N)N)NC(=O)[C@H](Cc2c[nH]cn2)NC(=O)[C@H](CO)NC(=O)CNC(=O)[C@H](Cc2c[nH]c3ccccc23)NC(=O)[C@H](CC(=O)O)NC(=O)[C@H](CCC(N)=O)NC(=O)[C@H](Cc2c[nH]c3ccccc23)NC(=O)[C@H]([C@@H](C)CC)NC1=O [Compound 6] (Ac-ICIWQDWGSHRCT-NH2; disulfide 2-12)	140
CC[C@H](C)[C@H](NC(C)=O)C(=O)N[C@H]1CSSC[C@@H](C(=O)N[C@H](C(N)=O)[C@@H](C)O)NC(=O)[C@H](CCCNC(=N)N)NC(=O)[C@H](Cc2c[nH]cn2)NC(=O)[C@H](CCC(=O)O)NC(=O)CNC(=O)[C@H](Cc2c[nH]c3ccccc23)NC(=O)[C@H](CC(=O)O)NC(=O)[C@H](CCC(N)=O)NC(=O)[C@H](Cc2c[nH]c3ccccc23)NC(=O)[C@H](C(C)C)NC1=O [A, reference compound] (Ac-ICVWQDWGEHRCT-NH2; disulfide 2-12)	350

Same assay, conditions: Table 5; different residues at position 3 of Ac-IC(1)XWQDWGEHRC(1)T-NH2; read-out: IC50, CP hemolysis

SMILES	IC50 [nM]
CC[C@H](C)[C@H](NC(C)=O)C(=O)N[C@H]1CSSC[C@@H](C(=O)N[C@H](C(N)=O)[C@@H](C)O)NC(=O)[C@H](CCCNC(=N)N)NC(=O)[C@H](Cc2c[nH]cn2)NC(=O)[C@H](CCC(=O)O)NC(=O)CNC(=O)[C@H](Cc2c[nH]c3ccccc23)NC(=O)[C@H](CC(=O)O)NC(=O)[C@H](CCC(N)=O)NC(=O)[C@H](Cc2c[nH]c3ccccc23)NC(=O)[C@H](C(C)C)NC1=O [A, reference compound] (Ac-ICVWQDWGEHRCT-NH2; disulfide 2-12)	350

Same assay, conditions: Table 5; different residues at position 3 of Ac-IC(1)[…](1)T-NH2; read-out: IC50, CP hemolysis

SMILES	IC50 [nM]
CCCC[C@H](N)C(=O)O [Norleucine, reference compound]	480

Reference: US20220306695A1, “COMPSTATIN ANALOGUES AND THEIR MEDICAL USES” (priority 2019, published 2022)
